Results from US20230348426A1, “OXOPYRROLIDINE FPR2 AGONISTS” (Bristol-Myers Squibb Company, priority 2020, published 2023).

Assays:
human FPR1 = human FPR1 (Homo sapiens (Human), UniProt P21462); assay: FPR1 cyclic adenosine monophosphate (cAMP) assay; assay type: cell-based; settings: CHO cells overexpressing human FPR1; forskolin 10 µM; inhibition of cAMP production; read-out: hFPR1 cAMP EC50
Text: (§1) N-formyl peptide receptors (FPRs) are a family of chemo attractant receptors that facilitate leukocyte response during inflammation. FPRs belong to the seven-transmembrane G protein-coupled receptor superfamily and are linked to inhibitory G-proteins (Gi). Three family members (FPR1, FPR2 and FPR3) have been identified in humans and are predominantly found in myeloid cells with varied distribution and have also been reported in multiple organs and tissues. After agonist binding, the FPRs activate a multitude of physiological pathways, such as intra cellular signaling transduction, Ca^2+ mobilization and transcription. The family interacts with a diverse set of ligands that includes proteins, polypeptides and fatty acid metabolites which activate both pro-inflammatory and pro-resolution downstream responses. FPR2 and FPR1 Cyclic Adenosine Monophosphate (cAMP) Assays were used to measure the activity of the compounds in this patent.
FPR2 and FPR1 Cyclic Adenosine Monophosphate (cAMP) Assays. A mixture of forskolin (5 µM final for FPR2 or 10 µM final for FPR1) and IBMX (200 µM final) were added to 384-well Proxiplates (Perkin-Elmer) pre-dotted with test compounds in DMSO (1% final) at final concentrations in the range of 0.020 nM to 100 µM. Chinese Hamster Ovary cells (CHO) overexpressing human FPR1 or human FPR2 receptors were cultured in F-12 (Ham’s) medium supplemented with 10% qualified FBS, 250 µg/ml zeocin and 300 µg/ml hygromycin (Life Technologies). Reactions were initiated by adding 2,000 human FPR2 cells per well or 4,000 human FPR1 cells per well in Dulbecco’s PBS (with calcium and magnesium) (Life Technologies) supplemented with 0.1% BSA (Perkin-Elmer). The reaction mixtures were incubated for 30 min at room temperature. The level of intracellular cAMP was determined using the HTRF HiRange cAMP assay reagent kit (Cisbio) according to manufacturer’s instruction. Solutions of cryptate conjugated anti-cAMP and d2 flurorophore-labelled cAMP were made in a supplied lysis buffer separately. Upon completion of the reaction, the cells were lysed with equal volume of the d2-cAMP solution and anti-cAMP solution. […] The potency and activity of a compound to inhibit cAMP production was then determined by fitting to a 4-parametric logistic equation from a plot of cAMP level versus compound concentrations.

human FPR2 = human FPR2 (Homo sapiens (Human), UniProt P25090); assay: FPR2 cyclic adenosine monophosphate (cAMP) assay; assay type: cell-based; settings: CHO cells overexpressing human FPR2; forskolin 5 µM; inhibition of cAMP production; read-out: hFPR2 cAMP2 EC50
Text: as §1
FPR2 and FPR1 Cyclic Adenosine Monophosphate (cAMP) Assays. A mixture of forskolin (5 µM final for FPR2 or 10 µM final for FPR1) and IBMX (200 µM final) were added to 384-well Proxiplates (Perkin-Elmer) pre-dotted with test compounds in DMSO (1% final) at final concentrations in the range of 0.020 nM to 100 µM. Chinese Hamster Ovary cells (CHO) overexpressing human FPR1 or human FPR2 receptors were cultured in F-12 (Ham’s) medium supplemented with 10% qualified FBS, 250 µg/ml zeocin and 300 µg/ml hygromycin (Life Technologies). Reactions were initiated by adding 2,000 human FPR2 cells per well or 4,000 human FPR1 cells per well in Dulbecco’s PBS (with calcium and magnesium) (Life Technologies) supplemented with 0.1% BSA (Perkin-Elmer). The reaction mixtures were incubated for 30 min at room temperature. The level of intracellular cAMP was determined using the HTRF HiRange cAMP assay reagent kit (Cisbio) according to manufacturer’s instruction. Solutions of cryptate conjugated anti-cAMP and d2 flurorophore-labelled cAMP were made in a supplied lysis buffer separately. Upon completion of the reaction, the cells were lysed with equal volume of the d2-cAMP solution and anti-cAMP solution. After a 1-h room temperature incubation, time-resolved fluorescence intensity was measured using the Envision (Perkin-Elmer) at 400 nm excitation and dual emission at 590 nm and 665 nm. A calibration curve was constructed with an external cAMP standard at concentrations ranging from 1 µM to 0.1 pM by plotting the fluorescent intensity ratio from 665 nm emission to the intensity from the 590 nm emission against cAMP concentrations. The potency and activity of a compound to inhibit cAMP production was then determined by fitting to a 4-parametric logistic equation from a plot of cAMP level versus compound concentrations.

Sequence of human FPR2 (P25090 whole entry): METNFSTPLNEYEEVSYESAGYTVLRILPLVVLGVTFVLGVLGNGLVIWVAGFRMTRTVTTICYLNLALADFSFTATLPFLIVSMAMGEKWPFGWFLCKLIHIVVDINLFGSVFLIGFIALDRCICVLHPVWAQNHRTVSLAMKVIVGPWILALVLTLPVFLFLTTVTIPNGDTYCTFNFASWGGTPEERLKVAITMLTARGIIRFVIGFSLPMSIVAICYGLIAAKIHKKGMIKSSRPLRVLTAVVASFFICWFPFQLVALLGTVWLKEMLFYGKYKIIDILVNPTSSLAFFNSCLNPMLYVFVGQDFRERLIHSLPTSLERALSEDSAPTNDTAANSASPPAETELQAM
Sequence of human FPR1 (P21462 whole entry): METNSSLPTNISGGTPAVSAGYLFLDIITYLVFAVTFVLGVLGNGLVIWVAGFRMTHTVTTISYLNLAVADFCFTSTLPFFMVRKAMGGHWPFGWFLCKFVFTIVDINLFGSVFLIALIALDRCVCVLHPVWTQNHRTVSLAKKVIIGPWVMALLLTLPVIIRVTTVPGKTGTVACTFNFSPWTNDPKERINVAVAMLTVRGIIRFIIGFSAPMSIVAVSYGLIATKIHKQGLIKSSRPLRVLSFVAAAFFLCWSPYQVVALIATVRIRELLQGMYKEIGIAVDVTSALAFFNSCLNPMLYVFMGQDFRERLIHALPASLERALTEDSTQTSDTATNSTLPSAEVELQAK

Row | EC50 (human FPR1) [nM] | EC50 (human FPR2) [nM] | Compound
1 | 30 | 5.5 | COCCn1cccc(N2C[C@@H](c3c(F)cc(OC)cc3F)[C@H](NC(=O)c3ccc(OC(F)F)cc3)C2=O)c1=O [Example 36]
2 | 16 | 8.9 | COCCn1cccc(N2C[C@@H](c3c(F)cc(OC)cc3F)[C@H](NC(=O)c3ccc(OC(F)(F)F)cc3)C2=O)c1=O [Example 37]
3 | 18 | 5.1 | CCn1cccc(N2C[C@@H](c3c(F)cc(OC)cc3F)[C@H](NC(=O)c3ccc(OC(F)F)cc3)C2=O)c1=O [Example 38]
4 | 2600 | 0.6 | COc1cc(N2C[C@@H](c3c(F)cc(OC)cc3F)[C@H](NC(=O)c3ccc(Cl)cc3)C2=O)nc(N2C[C@@H]3C[C@H]2CN3C)c1 [Example 40]
5 | 110 | 0.6 | COCC(CN)n1cccc(N2C[C@@H](c3c(F)cc(OC)cc3F)[C@H](NC(=O)c3ccc(OC(F)F)cc3)C2=O)c1=O (some centres unmarked) [Example 41]
6 | 730 | 0.7 | COc1cc(F)c([C@@H]2CN(c3nc(N4C[C@@H](C)N(C)[C@@H](C)C4)ccc3F)C(=O)[C@H]2NC(=O)c2ccc(OC(F)F)cc2)c(F)c1 [Example 42]
7 | 10 | 1 | COCC(CN)n1cccc(N2C[C@@H](c3c(F)cc(OC)cc3F)[C@H](NC(=O)c3ccc(OC(F)F)cc3)C2=O)c1=O (some centres unmarked) [Example 44]
8 | 4.3 | 1 | COc1ccc([C@@H]2CN(c3cccn(CC(F)F)c3=O)C(=O)[C@H]2NC(=O)c2ccc(OC(F)(F)F)cc2)c(F)c1 [Example 45]
9 | 2 | 1 | COc1cc(F)c([C@@H]2CN(c3nc(N4CCC4=O)ccc3F)C(=O)[C@H]2NC(=O)c2ccc(OC(F)F)cc2)c(F)c1 [Example 46]
10 | 150 | 1.1 | COc1cc(F)c([C@@H]2CN(c3cccn(CC(O)C(F)(F)F)c3=O)C(=O)[C@H]2NC(=O)c2ccc(OC(F)(F)F)cc2)c(F)c1 (some centres unmarked) [Example 47]
11 | 940 | 1.1 | COc1cc(F)c([C@@H]2CN(c3cccc(N4C[C@@H](C)N(C)[C@@H](C)C4)n3)C(=O)[C@H]2NC(=O)c2ccc(OC(F)F)cc2)c(F)c1 [Example 48]
12 | 2000 | 1.1 | COc1cc(N2C[C@@H]3C[C@H]2CN3C)nc(N2C(=O)[C@@H](NC(=O)c3ccc(Cl)cc3)[C@H](c3c(F)cc(OC)cc3F)[C@H]2C)c1 [Example 49]
13 | 1700 | 1.2 | COc1cc(F)c([C@@H]2CN(c3nc(N4C[C@H]5C[C@@H]4CN5C)ccc3F)C(=O)[C@H]2NC(=O)c2ccc(OC(F)F)cc2)c(F)c1 [Example 50]
14 | 5500 | 1.2 | COc1cc(N2C[C@@H]3C[C@H]2CN3C)nc(N2C(=O)[C@@H](NC(=O)c3ccc(OC(F)F)cc3)[C@H](c3c(F)cc(OC)cc3F)[C@@H]2C)c1 [Example 51]
15 | 27 | 1.3 | COc1cc(F)c([C@@H]2CN(c3cccn(C(F)F)c3=O)C(=O)[C@H]2NC(=O)c2ccc(OC(F)F)cc2)c(F)c1 [Example 52]
16 | 2.3 | 1.4 | COCCn1cccc(N2C[C@@H](c3ccc(OC)cc3F)[C@H](NC(=O)c3ccc(OC(F)(F)F)cc3)C2=O)c1=O [Example 53]
17 | 820 | 1.4 | COc1cc(F)c([C@@H]2CN(c3nc(N4CCN(C)CC4)ccc3F)C(=O)[C@H]2NC(=O)c2ccc(OC(F)F)cc2)c(F)c1 [Example 54]
18 | 8.6 | 1.4 | COc1ccc([C@@H]2CN(c3cccn(CCC(F)(F)F)c3=O)C(=O)[C@H]2NC(=O)c2ccc(OC(F)F)cc2)c(F)c1 [Example 55]
19 | 4 | 1.4 | COCCn1cccc(N2C[C@@H](c3ccc(OC)cc3F)[C@H](NC(=O)c3ccc(OC(F)(F)F)cc3)C2=O)c1=O [Example 56]

Row | EC50 (human FPR1) [nM] | EC50 (human FPR2) [nM] | Compound
20 | 0.066 | 1.4 | COc1ccc([C@@H]2CN(c3c(C)ccn(CC4CC4)c3=O)C(=O)[C@H]2NC(=O)c2ccc(OC(F)(F)F)cc2)cc1 [Example 57]
21 | 3.5 | 1.5 | COc1cc(F)c([C@@H]2CN(c3nc(N4CCOCC4=O)ccc3F)C(=O)[C@H]2NC(=O)c2ccc(OC(F)(F)F)cc2)c(F)c1 [Example 58]
22 | 6.6 | 1.5 | COc1ccc([C@@H]2CN(c3cccn(CC(F)F)c3=O)C(=O)[C@H]2NC(=O)c2ccc(OC(F)F)cc2)c(F)c1 [Example 59]
23 | 2.6 | 1.6 | COCCn1cccc(N2C[C@@H](c3ccc(OC)cc3)[C@H](NC(=O)c3ccc(OC(F)(F)F)cc3)C2=O)c1=O [Example 60]
24 | 110 | 1.6 | COc1cc(F)c([C@@H]2CN(c3nc(NC4CCOC4)ccc3F)C(=O)[C@H]2NC(=O)c2ccc(OC(F)(F)F)cc2)c(F)c1 (some centres unmarked) [Example 62]
25 | 16 | 1.7 | COc1ccc([C@@H]2CN(c3cccn(CCO)c3=O)C(=O)[C@H]2NC(=O)c2ccc(OC(F)(F)F)cc2)c(F)c1 [Example 63]
26 | 7.2 | 1.7 | COc1ccc([C@@H]2CN(c3cccn(CCO)c3=O)C(=O)[C@H]2NC(=O)c2ccc(OC(F)(F)F)cc2)cc1 [Example 64]
27 | 180 | 1.7 | COc1cc(F)c([C@@H]2CN(c3ccnc(N4C[C@@H]5C[C@H]4CN5C)c3C(F)(F)F)C(=O)[C@H]2NC(=O)c2ccc(OC(F)F)cc2)c(F)c1 [Example 65]
28 | 49 | 1.8 | COc1cc(F)c([C@@H]2CN(c3nc(N4C(=O)C5CCCC54)ccc3F)C(=O)[C@H]2NC(=O)c2ccc(OC(F)F)cc2)c(F)c1 (some centres unmarked) [Example 66]
29 | 4.4 | 1.8 | CCn1cccc(N2C[C@@H](c3ccc(Cl)cc3)[C@H](NC(=O)c3ccc(OC(F)(F)F)cc3)C2=O)c1=O [Example 67]
30 | 4.2 | 1.9 | O=C(N[C@@H]1C(=O)N(c2cccn(CC(F)F)c2=O)C[C@H]1c1ccc(Cl)cc1)c1ccc(OC(F)(F)F)cc1 [Example 69]
31 | > 10000 | 1.9 | COc1cc(N2C[C@@H]3C[C@H]2CN3C)nc(N2C(=O)[C@@H](NC(=O)c3ccc(Cl)cc3)[C@H](c3c(F)cc(OC)cc3F)[C@@H]2C)c1 [Example 70]
32 | 290 | 1.9 | COc1cc(N2C[C@@H]3C[C@H]2CN3C)nc(N2C(=O)[C@@H](NC(=O)c3ccc(OC(F)F)cc3)[C@H](c3c(F)cc(OC)cc3F)[C@H]2C)c1 [Example 71]
33 | 5.7 | 1.9 | O=C(N[C@@H]1C(=O)N(c2cccn(CCC(F)(F)F)c2=O)C[C@H]1c1ccc(Cl)cc1)c1ccc(OC(F)F)cc1 [Example 72]
34 | 3.2 | 1.9 | O=C(N[C@@H]1C(=O)N(c2cccn(CCC(F)(F)F)c2=O)C[C@H]1c1ccc(Cl)cc1)c1ccc(OC(F)(F)F)cc1 [Example 73]
35 | 94 | 1.9 | COCCn1cccc(N2C(=O)[C@@H](NC(=O)c3ccc(Cl)cc3)[C@H](c3c(F)cc(OC)cc3F)[C@@H]2C)c1=O [Example 74]
36 | 2.8 | 2 | COc1ccc([C@@H]2CN(c3cccn(CCC(F)(F)F)c3=O)C(=O)[C@H]2NC(=O)c2ccc(OC(F)(F)F)cc2)c(F)c1 [Example 75]
37 | 170 | 2 | COc1cc(F)c([C@H]2[C@H](NC(=O)c3ccc(OC(F)F)cc3)C(=O)N(c3ncccc3OC)[C@H]2C)c(F)c1 [Example 77]
